Laboratory results published in ChEMBL document CHEMBL4665746, “Viennamycins: Lipopeptides Produced by a Streptomyces sp” (J Nat Prod, 2020).
The source made the active and inactive calls.

Columns and labels:
Bacillus subtilis [1] = experiment: Antimicrobial activity against Bacillus subtilis in presence of >= 5 mM Zn2+; format: functional, organism-based
Bacillus subtilis [2] = experiment: Antimicrobial activity against Bacillus subtilis in presence of >= 5 mM Mg2+; format: functional, organism-based
Bacillus subtilis [3] = experiment: Antimicrobial activity against Bacillus subtilis in presence of >= 5 mM Mn2+; format: functional, organism-based
Aspergillus niger [4] = experiment: Antimicrobial activity against Aspergillus niger CBS 110271; format: functional, organism-based
Bacillus subtilis [5] = experiment: Antimicrobial activity against Bacillus subtilis in presence of >= 5 mM Ca2+; format: functional, organism-based
Aspergillus niger [6] = experiment: Antimicrobial activity against Aspergillus niger CBS 110271 in presence of >= 5 uM Ca2+; format: functional, organism-based
Fusarium graminearum [7] = experiment: Antimicrobial activity against Fusarium graminearum CBS 112.30; format: functional, organism-based
Fusarium graminearum [8] = experiment: Antimicrobial activity against Fusarium graminearum CBS 112.30 in presence of >= 5 uM Ca2+; format: functional, organism-based
Saccharomyces cerevisiae [9] = experiment: Antimicrobial activity against Saccharomyces cerevisiae BY4742 in presence of >= 5 uM Ca2+; format: functional, organism-based
Saccharomyces cerevisiae [10] = experiment: Antimicrobial activity against Saccharomyces cerevisiae BY4742; format: functional, organism-based
Acinetobacter baumannii [11] = experiment: Antimicrobial activity against Acinetobacter baumannii 1710; format: functional, organism-based
Acinetobacter baumannii [12] = experiment: Antimicrobial activity against Acinetobacter baumannii 1799; format: functional, organism-based
Acinetobacter baumannii [13] = experiment: Antimicrobial activity against Acinetobacter baumannii 1710 in presence of >= 5 uM Ca2+; format: functional, organism-based
Acinetobacter baumannii [14] = experiment: Antimicrobial activity against Acinetobacter baumannii 1799 in presence of >= 5 uM Ca2+; format: functional, organism-based
Acinetobacter baumannii [15] = experiment: Antimicrobial activity against Acinetobacter baumannii MB5973; format: functional, organism-based
Streptomyces coelicolor [16] = experiment: Antimicrobial activity against Streptomyces coelicolor A3 in presence of >= 5 uM Ca2+; format: functional, organism-based
Acinetobacter baumannii [17] = experiment: Antimicrobial activity against Acinetobacter baumannii MB5973 in presence of >= 5 uM Ca2+; format: functional, organism-based
Streptomyces coelicolor [18] = experiment: Antimicrobial activity against Streptomyces coelicolor A3; format: functional, organism-based
Streptococcus pneumoniae [19] = experiment: Antimicrobial activity against Streptococcus pneumoniae ATCC 46619; format: functional, organism-based
[20] = tested on: Staphylococcus epidermidis; experiment: Antimicrobial activity against Staphylococcus epidermidis; format: functional, organism-based
Streptococcus pneumoniae [21] = experiment: Antimicrobial activity against Streptococcus pneumoniae ATCC 46619 in presence of >= 5 uM Ca2+; format: functional, organism-based
[22] = tested on: Staphylococcus epidermidis; experiment: Antimicrobial activity against Staphylococcus epidermidis in presence of >= 5 uM Ca2+; format: functional, organism-based
Staphylococcus aureus [23] = experiment: Antimicrobial activity against Staphylococcus aureus MB2865; format: functional, organism-based
Staphylococcus aureus [24] = experiment: Antimicrobial activity against Staphylococcus aureus MB2865 in presence of >= 5 uM Ca2+; format: functional, organism-based
Staphylococcus aureus [25] = experiment: Antimicrobial activity against methicillin-sensitive Staphylococcus aureus ATCC 29213; format: functional, organism-based
Staphylococcus aureus [26] = experiment: Antimicrobial activity against Staphylococcus aureus 1415-10; format: functional, organism-based
Staphylococcus aureus [27] = experiment: Antimicrobial activity against methicillin-sensitive Staphylococcus aureus ATCC 29213 in presence of >= 5 uM Ca2+; format: functional, organism-based
Staphylococcus aureus [28] = experiment: Antimicrobial activity against Staphylococcus aureus 1415-10 in presence of >= 5 uM Ca2+; format: functional, organism-based
Staphylococcus aureus [29] = experiment: Antimicrobial activity against methicillin-resistant Staphylococcus aureus MB5393; format: functional, organism-based
Staphylococcus aureus [30] = experiment: Antimicrobial activity against methicillin-resistant Staphylococcus aureus MB5393 in presence of >= 5 uM Ca2+; format: functional, organism-based
MIA PaCa-2 [31] = experiment: Cytotoxicity against human MIA PaCa-2 cells assessed as reduction in cell viability; format: functional, cell-based
A2058 [32] = experiment: Cytotoxicity against human A2058 cells assessed as reduction in cell viability; format: functional, cell-based
A549 [33] = experiment: Cytotoxicity against human A549 cells assessed as reduction in cell viability; format: functional, cell-based
HepG2 [34] = experiment: Cytotoxicity against human HepG2 cells assessed as reduction in cell viability; format: functional, cell-based
MIA PaCa-2 [35] = experiment: Cytotoxicity against human MIA PaCa-2 cells assessed as reduction in cell viability in presence of >= 5 uM Ca2+; format: functional, cell-based
A2058 [36] = experiment: Cytotoxicity against human A2058 cells assessed as reduction in cell viability in presence of >= 5 uM Ca2+; format: functional, cell-based
A549 [37] = experiment: Cytotoxicity against human A549 cells assessed as reduction in cell viability in presence of >= 5 uM Ca2+; format: functional, cell-based
HepG2 [38] = experiment: Cytotoxicity against human HepG2 cells assessed as reduction in cell viability in presence of >= 5 uM Ca2+; format: functional, cell-based

Measured: Activity

CC[C@H](C)[C@H](NC(=O)[C@H](CC(N)=O)NC(=O)/C=C\C=C\CCC(C)C)C(=O)N[C@H](Cc1ccccc1)C(=O)N[C@H](CC(=O)O)C(=O)N[C@@H](CC(=O)O)C(=O)N[C@@H]1C(=O)N(C)[C@H](C(C)C)C(=O)NCC(=O)NCC(=O)N[C@H](CCC(=O)O)C(=O)N[C@@H](C)C(=O)N2CCC[C@H]2C(=O)O[C@@H]1C
inactive: Bacillus subtilis [1] | Bacillus subtilis [2] | Bacillus subtilis [3] | Aspergillus niger [4] | Bacillus subtilis [5] | Aspergillus niger [6] | Fusarium graminearum [7] | Fusarium graminearum [8] | Saccharomyces cerevisiae [9] | Saccharomyces cerevisiae [10] | Acinetobacter baumannii [11] | Acinetobacter baumannii [12] | Acinetobacter baumannii [13] | Acinetobacter baumannii [14] | Acinetobacter baumannii [15] | Streptomyces coelicolor [16] | Acinetobacter baumannii [17] | Streptomyces coelicolor [18] | Streptococcus pneumoniae [19] | [20] | Streptococcus pneumoniae [21] | [22] | Staphylococcus aureus [23] | Staphylococcus aureus [24] | Staphylococcus aureus [25] | Staphylococcus aureus [26] | Staphylococcus aureus [27] | Staphylococcus aureus [28] | Staphylococcus aureus [29] | Staphylococcus aureus [30] | MIA PaCa-2 [31] | A2058 [32] | A549 [33] | HepG2 [34] | MIA PaCa-2 [35] | A2058 [36] | A549 [37] | HepG2 [38]

CC[C@H](C)[C@H](NC(=O)[C@H](CC(N)=O)NC(=O)/C=C\C=C\CCC(C)C)C(=O)N[C@H](Cc1ccccc1)C(=O)N[C@H](CS(=O)(=O)O)C(=O)N[C@@H](CC(=O)O)C(=O)N[C@@H]1C(=O)N(C)[C@H](C(C)C)C(=O)NCC(=O)NCC(=O)N[C@H](CCC(=O)O)C(=O)N[C@@H](C)C(=O)N2CCC[C@H]2C(=O)O[C@@H]1C
inactive: Bacillus subtilis [1] | Bacillus subtilis [2] | Bacillus subtilis [3] | Aspergillus niger [4] | Bacillus subtilis [5] | Aspergillus niger [6] | Fusarium graminearum [7] | Fusarium graminearum [8] | Saccharomyces cerevisiae [9] | Saccharomyces cerevisiae [10] | Acinetobacter baumannii [11] | Acinetobacter baumannii [12] | Acinetobacter baumannii [13] | Acinetobacter baumannii [14] | Acinetobacter baumannii [15] | Streptomyces coelicolor [16] | Acinetobacter baumannii [17] | Streptomyces coelicolor [18] | Streptococcus pneumoniae [19] | [20] | Streptococcus pneumoniae [21] | [22] | Staphylococcus aureus [23] | Staphylococcus aureus [24] | Staphylococcus aureus [25] | Staphylococcus aureus [26] | Staphylococcus aureus [27] | Staphylococcus aureus [28] | Staphylococcus aureus [29] | Staphylococcus aureus [30] | MIA PaCa-2 [31] | A2058 [32] | A549 [33] | HepG2 [34] | MIA PaCa-2 [35] | A2058 [36] | A549 [37] | HepG2 [38]
